Tested on: 996289-038-R-J1-PDC complex spheroid viability
Test: Anticancer human tumor 996289-038-R-J1-PDC patient-derived colon adenocarcinoma cell line growth inhibition [CLK]
Conditions: for IC50: curve of first compound; for viability, T/C: stronger effect = lower value
Outline: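 Multi-cell-type spheroids combined patient-derived tumor cells with HUVEC endothelial cells and human mesenchymal stem cells. Paired agents were dosed in half-log steps down from about clinical Cmax, or from 10 microM where Cmax was unknown.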

[1] = second compound 0.0316 µM, first compound 0.0316 µM
[2] = second compound 0.0316 µM, first compound 0.1 µM
[3] = second compound 0.0316 µM, first compound 0.316 µM
[4] = second compound 0.0316 µM, first compound 1 µM
[5] = second compound 0.1 µM, first compound 0.0316 µM
[6] = second compound 0.1 µM, first compound 0.1 µM
[7] = second compound 0.1 µM, first compound 0.316 µM
[8] = second compound 0.1 µM, first compound 1 µM
[9] = second compound 0.316 µM, first compound 0.0316 µM
[10] = second compound 0.316 µM, first compound 0.1 µM
[11] = second compound 0.316 µM, first compound 0.316 µM
[12] = second compound 0.316 µM, first compound 1 µM
[13] = second compound 1 µM, first compound 0.0316 µM
[14] = second compound 1 µM, first compound 0.1 µM
[15] = second compound 1 µM, first compound 0.316 µM
[16] = second compound 1 µM, first compound 1 µM
[17] = second compound 3.16 µM, first compound 0.0316 µM
[18] = second compound 3.16 µM, first compound 0.1 µM
[19] = second compound 3.16 µM, first compound 0.316 µM
[20] = second compound 3.16 µM, first compound 1 µM
[21] = second compound 10 µM, first compound 0.0316 µM
[22] = second compound 10 µM, first compound 0.1 µM
[23] = second compound 10 µM, first compound 0.316 µM
[24] = second compound 10 µM, first compound 1 µM
[25] = second compound 0.0316 µM, first compound 0.00316 µM
[26] = second compound 0.0316 µM, first compound 0.01 µM
[27] = second compound 0.1 µM, first compound 0.00316 µM
[28] = second compound 0.1 µM, first compound 0.01 µM
[29] = second compound 0.316 µM, first compound 0.00316 µM
[30] = second compound 0.316 µM, first compound 0.01 µM
[31] = second compound 1 µM, first compound 0.00316 µM
[32] = second compound 1 µM, first compound 0.01 µM
[33] = second compound 3.16 µM, first compound 0.00316 µM
[34] = second compound 3.16 µM, first compound 0.01 µM
[35] = second compound 10 µM, first compound 0.00316 µM
[36] = second compound 10 µM, first compound 0.01 µM
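Further: spheroids exposed to the agents for 7 days before readout.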

SMILES: CC(Nc1ccc2c(c1)OCCn1cc(N3C(=O)OCC3C(F)F)nc1-2)C(N)=O (stereo unspecified) + CNC(=O)c1ccc(Nc2nc(OC3CCCC3)c3c(-c4ccc5nc(C)oc5c4)c[nH]c3n2)c(OC)c1
- IC50 (second compound 0.0316 µM): > 10000 nM
- IC50 (second compound 0.1 µM): 8750 nM
- IC50 (second compound 0.316 µM): 655 nM
- IC50 (second compound 1 µM): 45.3 nM
- IC50 (second compound 3.16 µM): 48.9 nM
- IC50 (second compound 10 µM): < 31.6 nM
- viability, T/C [1]: 113%
- viability, T/C [2]: 92.9%
- viability, T/C [3]: 83.4%
- viability, T/C [4]: 69.1%
- viability, T/C (second compound 0.0316 µM, first compound 3.16 µM): 60.2%
- viability, T/C (second compound 0.0316 µM, first compound 10 µM): 49.7%
- viability, T/C [5]: 114%
- viability, T/C [6]: 97.3%
- viability, T/C [7]: 82.1%
- viability, T/C [8]: 70.9%
- viability, T/C (second compound 0.1 µM, first compound 3.16 µM): 61.1%
- viability, T/C (second compound 0.1 µM, first compound 10 µM): 47.4%
- viability, T/C [9]: 69.1%
- viability, T/C [10]: 62.3%
- viability, T/C [11]: 53%
- viability, T/C [12]: 47.4%
- viability, T/C (second compound 0.316 µM, first compound 3.16 µM): 42.2%
- viability, T/C (second compound 0.316 µM, first compound 10 µM): 32.2%
- viability, T/C [13]: 52.9%
- viability, T/C [14]: 43.7%
- viability, T/C [15]: 38.3%
- viability, T/C [16]: 31.5%
- viability, T/C (second compound 1 µM, first compound 3.16 µM): 29.2%
- viability, T/C (second compound 1 µM, first compound 10 µM): 24.4%
- viability, T/C [17]: 53.7%
- viability, T/C [18]: 44.8%
- viability, T/C [19]: 33.1%
- viability, T/C [20]: 31.5%
- viability, T/C (second compound 3.16 µM, first compound 3.16 µM): 25.4%
- viability, T/C (second compound 3.16 µM, first compound 10 µM): 21.9%
- viability, T/C [21]: 46.7%
- viability, T/C [22]: 42.8%
- viability, T/C [23]: 31.2%
- viability, T/C [24]: 30.6%
- viability, T/C (second compound 10 µM, first compound 3.16 µM): 27.1%
- viability, T/C (second compound 10 µM, first compound 10 µM): 21.8%

SMILES: CCN1CCN(Cc2ccc(Nc3ncc(F)c(-c4cc(F)c5nc(C)n(C(C)C)c5c4)n3)nc2)CC1 + CNC(=O)c1ccc(Nc2nc(OC3CCCC3)c3c(-c4ccc5nc(C)oc5c4)c[nH]c3n2)c(OC)c1
- IC50 (second compound 0.0316 µM): > 1000 nM
- IC50 (second compound 0.1 µM): > 1000 nM
- IC50 (second compound 0.316 µM): > 1000 nM
- IC50 (second compound 1 µM): > 1000 nM
- IC50 (second compound 3.16 µM): > 1000 nM
- IC50 (second compound 10 µM): > 1000 nM
- viability, T/C [25]: 109%
- viability, T/C [26]: 103%
- viability, T/C [1]: 106%
- viability, T/C [2]: 97.6%
- viability, T/C [3]: 92.6%
- viability, T/C [4]: 96.2%
- viability, T/C [27]: 115%
- viability, T/C [28]: 111%
- viability, T/C [5]: 108%
- viability, T/C [6]: 91.8%
- viability, T/C [7]: 86.5%
- viability, T/C [8]: 86.7%
- viability, T/C [29]: 79%
- viability, T/C [30]: 81.2%
- viability, T/C [9]: 80.8%
- viability, T/C [10]: 75%
- viability, T/C [11]: 82.8%
- viability, T/C [12]: 76.8%
- viability, T/C [31]: 72.6%
- viability, T/C [32]: 70.2%
- viability, T/C [13]: 64.2%
- viability, T/C [14]: 66.9%
- viability, T/C [15]: 64.8%
- viability, T/C [16]: 77.1%
- viability, T/C [33]: 62.5%
- viability, T/C [34]: 62.1%
- viability, T/C [17]: 61.9%
- viability, T/C [18]: 64.9%
- viability, T/C [19]: 73.2%
- viability, T/C [20]: 65.9%
- viability, T/C [35]: 66%
- viability, T/C [36]: 63.9%
- viability, T/C [21]: 61.3%
- viability, T/C [22]: 62.2%
- viability, T/C [23]: 68.1%
- viability, T/C [24]: 59.8%

SMILES: COc1c(OCCCN2CCOCC2)ccc2c3n(c(=NC(=O)c4cnc(N)nc4)nc12)CCN3 + CNC(=O)c1ccc(Nc2nc(OC3CCCC3)c3c(-c4ccc5nc(C)oc5c4)c[nH]c3n2)c(OC)c1
- IC50 (second compound 0.0316 µM): 123 nM
- IC50 (second compound 0.1 µM): 97.3 nM
- IC50 (second compound 0.316 µM): 28.9 nM
- IC50 (second compound 1 µM): 7.67 nM
- IC50 (second compound 3.16 µM): 3.86 nM
- IC50 (second compound 10 µM): < 3.16 nM
- viability, T/C [25]: 112%
- viability, T/C [26]: 96.5%
- viability, T/C [1]: 72.6%
- viability, T/C [2]: 54.6%
- viability, T/C [3]: 35.4%
- viability, T/C [4]: 25.2%
- viability, T/C [27]: 112%
- viability, T/C [28]: 96.1%
- viability, T/C [5]: 71.8%
- viability, T/C [6]: 48.7%
- viability, T/C [7]: 33.8%
- viability, T/C [8]: 21.2%
- viability, T/C [29]: 70.2%
- viability, T/C [30]: 62.8%
- viability, T/C [9]: 47.7%
- viability, T/C [10]: 35.5%
- viability, T/C [11]: 22.9%
- viability, T/C [12]: 14.4%
- viability, T/C [31]: 59.1%
- viability, T/C [32]: 46.5%
- viability, T/C [13]: 33.8%
- viability, T/C [14]: 19.7%
- viability, T/C [15]: 15.6%
- viability, T/C [16]: 13.3%
- viability, T/C [33]: 51.2%
- viability, T/C [34]: 41.9%
- viability, T/C [17]: 29.5%
- viability, T/C [18]: 20.7%
- viability, T/C [19]: 13.5%
- viability, T/C [20]: 11.7%
- viability, T/C [35]: 46.6%
- viability, T/C [36]: 40.4%
- viability, T/C [21]: 28.9%
- viability, T/C [22]: 18.4%
- viability, T/C [23]: 12.7%
- viability, T/C [24]: 10.5%

Reference: PubChem BioAssay AID2060600 (Molecular Pharmacology Branch, DTP, NCI, 2025)
